# Columns and labels:
# RET kinase = RET kinase (Homo sapiens, UniProt P07949); experiment: RET Kinase Activity Assay; type: biochemical; conditions: test concentration not given
# Protocol: RET Kinase Activity Assay
# The disclosed compounds were assayed for their ability to inhibit the activity of RET kinase. Nunc Maxwasorb plates were coated with streptavidin by overnight incubation with 100 μL per well of 1 μg/mL Streptavidin in DPBS. Prior to the start of the experiment, the plates were washed with TBST (3×200 μL) and blocked for at least 1 hour by adding 150 μL of 5% BSA/TBST. The plates were washed with TBST (3×200 μL/well) and left dry immediately before the capture step.
# The test articles and controls (Staurosporine and Sutent) were prepared using the following assay buffer at 3× desired final concentration (50 mM […], 0.02 mg/mL BSA, 10 mM MgCl2, 0.1 mM Na3VO4, 1 mM EGTA, 75 μM ATP0.01% NP-40, 2 mM DTT in 10% glycerol/water). In a reaction plate, were added rapidly 20 μL test article (or control) and 20 μL RET (0.25 ng/μL final concentration). The plate was incubated for 15 minutes. To the reaction plate was added 20 μL of Pyk-2 (0.25 ng/μL final concentration). The plate was incubated at room temperature for one hour.
# (§1) From the reaction plate, 50 μL was transferred to the streptavidin coated plate. The capture plate was incubated at room temperature for 30 minutes then washed 6× with TBST. To the capture plate was added 100 μL/well of Cell Signaling anti-phospho tyrosine at a dilution of 1:3000 in 2% BSA/TBST. The plate was incubated for one hour at room temperature then washed 6× with TBST. To the capture plate was added 100 μL/well of Alkaline Phosphatase Tagged Goat anti Mouse Antibody at a dilution of 1:4000 in 2% BSA/TBST. The plate was incubated for one hour at room temperature then washed 6× with TBST. The fluorescent readout was initiated by the addition of 100 μL/well of Attophos reagent (6 mg/10 mL). The reading was done on the Perkin Elmer Envwasion system.
# Tec kinase = target: T1, Tec kinase (Homo sapiens, UniProt P42680); experiment: Tec Kinase Activity Assay; type: biochemical; conditions: test concentration not given
# T1 sequence (P42680 1-631): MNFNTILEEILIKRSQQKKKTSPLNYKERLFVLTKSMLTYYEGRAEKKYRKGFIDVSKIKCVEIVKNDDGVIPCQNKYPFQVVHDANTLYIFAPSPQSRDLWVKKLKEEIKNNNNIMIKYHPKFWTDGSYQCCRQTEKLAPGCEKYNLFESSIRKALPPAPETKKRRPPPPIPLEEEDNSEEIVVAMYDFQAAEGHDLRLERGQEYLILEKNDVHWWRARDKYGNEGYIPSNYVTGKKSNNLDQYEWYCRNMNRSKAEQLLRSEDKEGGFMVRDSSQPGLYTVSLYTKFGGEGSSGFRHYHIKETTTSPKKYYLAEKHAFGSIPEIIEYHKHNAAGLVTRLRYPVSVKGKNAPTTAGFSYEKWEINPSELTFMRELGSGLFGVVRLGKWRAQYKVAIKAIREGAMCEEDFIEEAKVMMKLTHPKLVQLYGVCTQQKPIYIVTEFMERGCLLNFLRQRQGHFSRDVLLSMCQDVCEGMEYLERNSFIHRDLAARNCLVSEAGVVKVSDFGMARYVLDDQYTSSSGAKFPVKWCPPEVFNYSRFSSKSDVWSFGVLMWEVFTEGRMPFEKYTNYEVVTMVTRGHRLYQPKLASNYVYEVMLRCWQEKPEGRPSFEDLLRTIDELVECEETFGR
# Protocol: Tec Kinase Activity Assay
# The disclosed compounds were assayed for their ability to inhibit the activity of Tec kinase. Nunc Maxisorb plates were coated with streptavidin by overnight incubation with 100 μL per well of 1 μg/mL Streptavidin in DPBS. Prior to the start of the experiment, the plates were washed with TBST (3×200 μL) and blocked for at least 1 hour by adding 150 μL of 5% BSA/TBST. The plates were washed with TBST (3×200 μL/well) and left dry immediately before the capture step.
# The test articles and controls (Staurosporine and Sutent) were prepared using the following assay buffer at 3× desired final concentration (50 mM Tris-HCl, 0.02 mg/mL BSA, 10 mM MgCl2, 0.1 mM Na3VO4, 1 mM EGTA, 75 μM ATP0.01% NP-40, 2 mM DTT in 10% glycerol/water). In a reaction plate were added rapidly 20 μL test article (or control) and 20 μL TEC 0.25 ng/μL. The plate was incubated for 30 minutes. To the reaction plate was added 20 μL of Pyk-2 0.5 ng/μL. The plate was incubated at room temperature for two hours.
# as §1, with “Envision” for “Envwasion”
# DLD-1 cancer cells = experiment: MTS Assay; type: cell-based; conditions: Homo sapiens, DLD-1 cells, 72 h
# Protocol: Cells were maintained at 37° C., 5% CO2 in DMEM media supplemented with 1% fetal bovine serum, penicillin/streptomycin and fungizone (Invitrogen). Cells were seeded into 96-well tissue culture plates at 3000 per well and cultured at 37° C. for 18 hours. Test compounds were dissolved and diluted to 300× in DMSO then diluted 1:40 in DMEM. Cells were incubated with test compounds for 72 hours followed by incubation with tetrazolium compound (3-(4,5-dimethylthiazol-2-yl)-5-(3-carboxymethoxyphenyl)-2-(4-sulfophenyl)-2H-tetrazolium, inner salt; MTS) and the electron coupling reagent, phenazine methosulfate (PMS) for 4 hours. […] The ability of compounds to inhibit cell growth in this assay is correlated with the reduction of dehydrogenase enzyme activity found in metabolically active cells. The measurement of the absorbance of the formazan was assessed using a Victor (Perkin Elmer) microplate reader at 492 nm. The calculated IC50 value is the concentration of the test compound that causes a 50% decrease in the absorbance.
# RET kinase, sequence (P07949 29-1114): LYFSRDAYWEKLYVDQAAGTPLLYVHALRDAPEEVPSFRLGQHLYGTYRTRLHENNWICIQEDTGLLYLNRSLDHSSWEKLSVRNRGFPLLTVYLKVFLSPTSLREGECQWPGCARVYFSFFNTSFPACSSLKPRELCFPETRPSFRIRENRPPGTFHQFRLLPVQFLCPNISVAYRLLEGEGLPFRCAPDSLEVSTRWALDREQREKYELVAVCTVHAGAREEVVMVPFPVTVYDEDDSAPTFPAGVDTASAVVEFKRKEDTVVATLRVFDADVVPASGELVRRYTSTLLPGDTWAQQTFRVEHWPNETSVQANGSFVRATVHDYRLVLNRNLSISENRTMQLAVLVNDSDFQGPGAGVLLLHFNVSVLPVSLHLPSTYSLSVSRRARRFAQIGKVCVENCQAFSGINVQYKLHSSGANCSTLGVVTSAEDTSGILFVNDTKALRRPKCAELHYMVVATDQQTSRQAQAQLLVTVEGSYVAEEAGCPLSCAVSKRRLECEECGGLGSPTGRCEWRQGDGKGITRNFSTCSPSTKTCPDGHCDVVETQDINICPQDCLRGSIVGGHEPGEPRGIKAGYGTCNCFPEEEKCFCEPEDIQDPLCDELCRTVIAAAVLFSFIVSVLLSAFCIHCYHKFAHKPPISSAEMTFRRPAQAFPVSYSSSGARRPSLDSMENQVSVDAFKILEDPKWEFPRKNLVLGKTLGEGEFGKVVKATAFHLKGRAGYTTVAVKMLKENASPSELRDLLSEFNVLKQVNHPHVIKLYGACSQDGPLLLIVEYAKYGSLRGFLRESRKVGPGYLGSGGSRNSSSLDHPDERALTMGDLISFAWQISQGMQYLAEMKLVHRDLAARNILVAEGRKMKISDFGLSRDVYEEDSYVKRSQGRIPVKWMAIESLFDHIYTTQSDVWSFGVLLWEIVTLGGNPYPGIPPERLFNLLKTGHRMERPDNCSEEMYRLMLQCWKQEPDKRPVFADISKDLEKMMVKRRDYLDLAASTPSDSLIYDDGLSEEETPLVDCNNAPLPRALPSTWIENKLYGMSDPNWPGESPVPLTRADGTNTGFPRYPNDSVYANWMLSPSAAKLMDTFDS
Structure (SMILES),Kinase Activity (RET kinase inhibition) (RET kinase),Kinase Activity (Tec kinase inhibition) (Tec kinase),inhibition at 10 µM (DLD-1 cancer cells) [%]
"c1cc(-c2cnc3nnc(-c4ccncc4)n3c2)c2cc[nH]c2c1 [Compound 4, 6-(1H-indol-4-yl)-3-(pyridin-4-yl)-[1,2,4]triazolo[4,3-a]pyrimidine]",A (A indicates 75-100% inhibition),–,–
"c1ccc(Oc2ccc(-c3cnc4nnc(-c5ccncc5)n4c3)cc2)cc1 [Compound 6, 6-(4-phenoxyphenyl)-3-(pyridin-4-yl)-[1,2,4]triazolo[4,3-a]pyrimidine]",A (A indicates 75-100% inhibition),A (A indicates 75-100% inhibition),–
"CS(=O)(=O)c1ccc(-c2nnc3ncc(-c4ccc(Oc5ccccc5)cc4)cn23)cc1 [Compound 7, 3-(4-(methylsulfonyl)phenyl)-6-(4-phenoxyphenyl)-[1,2,4]triazolo[4,3-a]pyrimidine]",A (A indicates 75-100% inhibition),A (A indicates 75-100% inhibition),98
"CC(C)(C)c1ccc(-c2cnc3nnc(-c4ccc(C#N)cc4)n3c2)cc1 [Compound 9, 4-(6-(4-tert-butylphenyl)-[1,2,4]triazolo[4,3-a]pyrimidin-3-yl)benzonitrile]",A (A indicates 75-100% inhibition),B (B indicates 50-75% inhibition),39
"COc1ccc(-c2cnc3nnc(-c4ccc(CC(C)C)cc4)n3c2)cc1 [Compound 8, 3-(4-isobutylphenyl)-6-(4-methoxyphenyl)-[1,2,4]triazolo[4,3-a]pyrimidine]",–,B (B indicates 50-75% inhibition),74
"Brc1cnc2nnc(-c3ccccc3)n2c1 [Compound 1, 6-bromo-3-phenyl-[1,2,4]triazolo[4,3-a]pyrimidine]",–,A (A indicates 75-100% inhibition),–
"Brc1cnc2nnc(-c3ccc(-c4cccnc4)cc3)n2c1 [Compound 2, 6-bromo-3-(4-(pyridin-3-yl)phenyl)-[1,2,4]triazolo[4,3-a]pyrimidine]",–,B (B indicates 50-75% inhibition),–
"CS(=O)(=O)c1ccc(-c2nnc3ncc(-c4ccccc4Oc4ccccc4)cn23)cc1 [Compound 11, 3-(4-(methylsulfonyl)phenyl)-6-(2-phenoxyphenyl)-[1,2,4]triazolo[4,3-a]pyrimidine]",A (A indicates 75-100% inhibition),–,–
"c1ccc(-c2nnc3ncc(-c4cccc5[nH]ccc45)cn23)cc1 [Compound 3, 6-(1H-indol-4-yl)-3-phenyl-[1,2,4]triazolo[4,3-a]pyrimidine]",A (A indicates 75-100% inhibition),A (A indicates 75-100% inhibition),98
"Cc1ccc(-c2cnc3nnc(-c4ccc(S(C)(=O)=O)cc4)n3c2)c2ccccc12 [Compound 10, 6-(4-methylnaphthalen-1-yl)-3-(4-(methylsulfonyl)phenyl)-[1,2,4]triazolo[4,3-a]pyrimidine]",A (A indicates 75-100% inhibition),–,–
"c1ccc(Oc2ccccc2-c2cnc3nnc(-c4ccncc4)n3c2)cc1 [Compound 5, 6-(2-phenoxyphenyl)-3-(pyridin-4-yl)-[1,2,4]triazolo[4,3-a]pyrimidine]",B (B indicates 50-75% inhibition),B (B indicates 50-75% inhibition),13

# — patent US8343977B2, “Substituted triazolo-pyrimidine compounds” (ArQule, Inc., priority 2009, dated 2013)
